Test results published in ChEMBL document CHEMBL1201862, “PubChem BioAssay data set” (2004).
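96-well plates; 48 h exposure; 5 concentrations. Endpoints by linear interpolation between flanking doses. Not reached: highest tested concentration assigned. GI50: concentration for 50% inhibition of growth.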 Calls of active or inactive are those of the source. Rule as the data show it: active = GI50 up to about 1.1 µM and inactive = higher.

Experiments:
Assay in all cases: inhibition of tumour cell growth, NCI panel, 48 h
HOP-92 = system: HOP-92
SN12C = system: SN12C
OVCAR-4 = system: OVCAR-4
ACHN = system: ACHN
NCI-H23 = system: NCI-H23
RPMI-8226 = system: RPMI-8226
NCI-H226 = system: NCI-H226
OVCAR-5 = system: OVCAR-5
UO-31 = system: UO-31
MDA-MB-435 = system: MDA-MB-435
KM12 = system: KM12
HCT-116 = system: HCT-116
NCI/ADR-RES = system: NCI/ADR-RES
RXF 393 = system: RXF 393
Malme-3M = system: Malme-3M
A498 = system: A498
HL-60 = system: HL-60
HCC 2998 = system: HCC 2998
SK-OV-3 = system: SK-OV-3
SR = system: SR

| Compound | GI50 (HOP-92) | GI50 (SN12C) | GI50 (OVCAR-4) | GI50 (ACHN) | GI50 (NCI-H23) | GI50 (RPMI-8226) | GI50 (NCI-H226) | GI50 (OVCAR-5) | GI50 (UO-31) | GI50 (MDA-MB-435) | GI50 (KM12) | GI50 (HCT-116) | GI50 (NCI/ADR-RES) | GI50 (RXF 393) | GI50 (Malme-3M) | GI50 (A498) | GI50 (HL-60) | GI50 (HCC 2998) | GI50 (SK-OV-3) | GI50 (SR) |
| --- | --- | --- | --- | --- | --- | --- | --- | --- | --- | --- | --- | --- | --- | --- | --- | --- | --- | --- | --- | --- |
| NC(=O)Nc1ccc(S(=O)(=O)Nc2ccc(S(N)(=O)=O)cc2)cc1 | 37.2 µM (inactive) | > 100 µM (inactive) | > 100 µM (inactive) | > 100 µM (inactive) | > 100 µM (inactive) | > 100 µM (inactive) | > 100 µM (inactive) | > 100 µM (inactive) | > 100 µM (inactive) | > 100 µM (inactive) | > 100 µM (inactive) | > 100 µM (inactive) | > 100 µM (inactive) | > 100 µM (inactive) | > 100 µM (inactive) | > 100 µM (inactive) | – | – | – | – |
| CC(C)(C)CNCCO | > 100 µM (inactive) | > 100 µM (inactive) | > 100 µM (inactive) | > 100 µM (inactive) | > 100 µM (inactive) | > 100 µM (inactive) | > 100 µM (inactive) | > 100 µM (inactive) | > 100 µM (inactive) | > 100 µM (inactive) | > 100 µM (inactive) | > 100 µM (inactive) | > 100 µM (inactive) | > 100 µM (inactive) | > 100 µM (inactive) | > 100 µM (inactive) | > 100 µM (inactive) | > 100 µM (inactive) | > 100 µM (inactive) | – |
| O=C(O)C1C2OC(C(Br)C2Br)C1C(=O)O (configuration not stated) | – | > 100 µM (inactive) | > 100 µM (inactive) | > 100 µM (inactive) | > 100 µM (inactive) | > 100 µM (inactive) | > 100 µM (inactive) | > 100 µM (inactive) | > 100 µM (inactive) | > 100 µM (inactive) | > 100 µM (inactive) | > 100 µM (inactive) | > 100 µM (inactive) | > 100 µM (inactive) | > 100 µM (inactive) | > 100 µM (inactive) | > 100 µM (inactive) | – | > 100 µM (inactive) | – |
| C=CCSc1nn(CC=C)cc2ncnc1-2 | – | > 100 µM (inactive) | – | > 100 µM (inactive) | > 100 µM (inactive) | > 100 µM (inactive) | > 100 µM (inactive) | > 100 µM (inactive) | > 100 µM (inactive) | > 100 µM (inactive) | > 100 µM (inactive) | > 100 µM (inactive) | > 100 µM (inactive) | > 100 µM (inactive) | – | > 100 µM (inactive) | > 100 µM (inactive) | – | – | > 100 µM (inactive) |
| O=C(/C=C\c1ccc([N+](=O)[O-])cc1)c1ccccc(=O)c1O | 0.256 µM (active) | 4.81 µM (inactive) | 2.47 µM (inactive) | 1.01 µM (active) | 2.33 µM (inactive) | 0.682 µM (active) | 1.65 µM (inactive) | 2.55 µM (inactive) | 1.02 µM (active) | 0.989 µM (active) | 1.04 µM (active) | 0.659 µM (active) | 0.429 µM (active) | – | 0.873 µM (active) | 2.84 µM (inactive) | 0.538 µM (active) | 1.29 µM (inactive) | 4.3 µM (inactive) | – |
| COc1ccccc1NC(=S)Nc1cccc(C)n1 | – | > 100 µM (inactive) | > 100 µM (inactive) | – | – | > 100 µM (inactive) | 36.9 µM (inactive) | > 100 µM (inactive) | > 100 µM (inactive) | > 100 µM (inactive) | 25.6 µM (inactive) | > 100 µM (inactive) | > 100 µM (inactive) | > 100 µM (inactive) | 16.7 µM (inactive) | > 100 µM (inactive) | > 100 µM (inactive) | – | > 100 µM (inactive) | > 100 µM (inactive) |
| Clc1cc(Br)c2c3c(c(Br)cc(Cl)c13)C(Br)=C2Br | – | 19.5 µM (inactive) | 44.9 µM (inactive) | 19.7 µM (inactive) | – | 21.6 µM (inactive) | 39.4 µM (inactive) | 44.2 µM (inactive) | 44.6 µM (inactive) | 39.4 µM (inactive) | 45.8 µM (inactive) | 21.2 µM (inactive) | 22.8 µM (inactive) | – | 27.6 µM (inactive) | > 100 µM (inactive) | 19.1 µM (inactive) | 18.3 µM (inactive) | > 100 µM (inactive) | 27.9 µM (inactive) |
| C[C@@H]1OC(=O)C[C@H]2CC(=O)N(CCC3CN(C(=O)c4ccccc4)c4ccccc43)C[C@@H]21 (some centres not stated) | > 100 µM (inactive) | – | > 100 µM (inactive) | > 100 µM (inactive) | > 100 µM (inactive) | > 100 µM (inactive) | – | > 100 µM (inactive) | > 100 µM (inactive) | > 100 µM (inactive) | > 100 µM (inactive) | > 100 µM (inactive) | > 100 µM (inactive) | > 100 µM (inactive) | > 100 µM (inactive) | > 100 µM (inactive) | – | > 100 µM (inactive) | > 100 µM (inactive) | – |
| CCCCCC1=C2C(c3ccc(OC)cc3)=C(N)C(c3ccc(OC)cc3)=C3NC(=O)C(C=C1)C32 (configuration not stated) | 17.9 µM (inactive) | 74.8 µM (inactive) | 23.2 µM (inactive) | > 100 µM (inactive) | 48.4 µM (inactive) | 33 µM (inactive) | 21.9 µM (inactive) | > 100 µM (inactive) | 54.3 µM (inactive) | 37.3 µM (inactive) | 59.6 µM (inactive) | 57.5 µM (inactive) | > 100 µM (inactive) | 18.9 µM (inactive) | 19.5 µM (inactive) | 43 µM (inactive) | > 100 µM (inactive) | > 100 µM (inactive) | 41.7 µM (inactive) | – |
| CCNc1nc2ccccc2nc1NCC | – | > 100 µM (inactive) | – | > 100 µM (inactive) | > 100 µM (inactive) | > 100 µM (inactive) | > 100 µM (inactive) | > 100 µM (inactive) | > 100 µM (inactive) | > 100 µM (inactive) | > 100 µM (inactive) | > 100 µM (inactive) | > 100 µM (inactive) | > 100 µM (inactive) | > 100 µM (inactive) | > 100 µM (inactive) | > 100 µM (inactive) | > 100 µM (inactive) | > 100 µM (inactive) | > 100 µM (inactive) |
| CN(C)CCNC(=O)c1cccc(N(C)C(=O)c2ccccc2)c1[N+](=O)[O-] | – | > 10 µM (inactive) | – | > 100 µM (inactive) | > 100 µM (inactive) | – | > 100 µM (inactive) | > 100 µM (inactive) | > 100 µM (inactive) | > 100 µM (inactive) | > 100 µM (inactive) | > 100 µM (inactive) | > 100 µM (inactive) | – | > 100 µM (inactive) | > 100 µM (inactive) | > 100 µM (inactive) | > 100 µM (inactive) | > 100 µM (inactive) | > 100 µM (inactive) |
| CN(CCCNCc1ccccn1)Cc1ccccc1O | 42.9 µM (inactive) | 71.1 µM (inactive) | 31.8 µM (inactive) | 13.9 µM (inactive) | 14.4 µM (inactive) | 36.3 µM (inactive) | 15.4 µM (inactive) | 32 µM (inactive) | 3.73 µM (inactive) | 44.4 µM (inactive) | 28.5 µM (inactive) | 60.4 µM (inactive) | 16.3 µM (inactive) | 16.7 µM (inactive) | 27.8 µM (inactive) | > 100 µM (inactive) | 2.74 µM (inactive) | 25.1 µM (inactive) | 45.2 µM (inactive) | – |
| Cc1ccc(S(=O)(=O)N(CC(O)COc2ccccc2)c2ccccc2Cl)cc1 (configuration not stated) | – | 15 µM (inactive) | 12.4 µM (inactive) | 16.3 µM (inactive) | 14.7 µM (inactive) | 11.5 µM (inactive) | 14.9 µM (inactive) | 23.3 µM (inactive) | 12.2 µM (inactive) | 15.6 µM (inactive) | 14.6 µM (inactive) | 14.6 µM (inactive) | 16.8 µM (inactive) | 16 µM (inactive) | 14.5 µM (inactive) | 17.7 µM (inactive) | 24.6 µM (inactive) | 19.5 µM (inactive) | 23.8 µM (inactive) | 13.9 µM (inactive) |
| CCOCc1c(C)cc(C)c(C2C(C(=O)c3ccccc3)N3c4ccccc4C=CC3C2(C#N)C(=O)OCC)c1C (configuration not stated) | – | 61.5 µM (inactive) | 37 µM (inactive) | 50.9 µM (inactive) | 44.4 µM (inactive) | 81.7 µM (inactive) | – | 64.9 µM (inactive) | 49.1 µM (inactive) | 38.7 µM (inactive) | 16.8 µM (inactive) | 26.7 µM (inactive) | 33.7 µM (inactive) | 46 µM (inactive) | – | > 100 µM (inactive) | > 100 µM (inactive) | 18.1 µM (inactive) | – | 82.8 µM (inactive) |
| COC(=O)C1Cc2ccc(C)cc2C1=O (configuration not stated) | – | > 100 µM (inactive) | > 100 µM (inactive) | > 100 µM (inactive) | > 100 µM (inactive) | > 100 µM (inactive) | > 100 µM (inactive) | > 100 µM (inactive) | > 100 µM (inactive) | > 100 µM (inactive) | 83.4 µM (inactive) | > 100 µM (inactive) | > 100 µM (inactive) | – | > 100 µM (inactive) | > 100 µM (inactive) | 25.8 µM (inactive) | > 100 µM (inactive) | > 100 µM (inactive) | > 100 µM (inactive) |
| COc1cc2c(cc1OC)-c1[nH]c3ccc([N+](=O)[O-])cc3c1CC(=O)N2 | – | 2.37 µM (inactive) | 3.19 µM (inactive) | 2.32 µM (inactive) | 4.33 µM (inactive) | 3.6 µM (inactive) | 0.78 µM (active) | 3.78 µM (inactive) | 2.36 µM (inactive) | 1.71 µM (inactive) | 0.867 µM (active) | 0.472 µM (active) | > 100 µM (inactive) | 1.43 µM (inactive) | – | 2.98 µM (inactive) | 2.94 µM (inactive) | 1.04 µM (active) | 3.15 µM (inactive) | 0.278 µM (active) |
